In the NIST ThermoML archive (doi:10.1016/j.fluid.2010.10.005):

Test: xn = mol fraction of the nth substance listed
Conditions: 623.15 K, Liquid, Vibrating tube method

CO [methanol] + O
Conditions | mass density [kg/m3]
20000 kPa, x1 = 0.04 | 554.98
20000 kPa, x1 = 0.09 | 499.06
20000 kPa, x1 = 0.15 | 466.53
20000 kPa, x1 = 0.18 | 408.88
20000 kPa, x1 = 0.2 | 310.04
20000 kPa, x1 = 0.25 | 240.45
20000 kPa, x1 = 0.38 | 198.52
20000 kPa, x1 = 0.57 | 192.93
20000 kPa, x1 = 0.59 | 193.68
20000 kPa, x1 = 0.73 | 195.58
20000 kPa, x1 = 0.9 | 203.5
20000 kPa, x1 = 0.95 | 203.61
25000 kPa, x1 = 0.06 | 592.54
25000 kPa, x1 = 0.1 | 564.26
25000 kPa, x1 = 0.19 | 481.28
25000 kPa, x1 = 0.29 | 388.57
25000 kPa, x1 = 0.38 | 335.66
25000 kPa, x1 = 0.55 | 284.19
25000 kPa, x1 = 0.8 | 268.34
30000 kPa, x1 = 0.07 | 599.12
30000 kPa, x1 = 0.09 | 578.83
30000 kPa, x1 = 0.12 | 569.12
30000 kPa, x1 = 0.19 | 536.54
30000 kPa, x1 = 0.47 | 401.25
30000 kPa, x1 = 0.54 | 383.13
30000 kPa, x1 = 0.76 | 350.39
35000 kPa, x1 = 0.09 | 603.89
35000 kPa, x1 = 0.18 | 552.55
35000 kPa, x1 = 0.38 | 476.16
35000 kPa, x1 = 0.48 | 449.31
35000 kPa, x1 = 0.55 | 432.87
35000 kPa, x1 = 0.63 | 422.11
35000 kPa, x1 = 0.77 | 406.97
35000 kPa, x1 = 0.87 | 397.04
